From US20220331298A1, “TREATMENT OF FRAGILE X SYNDROME WITH IBUDILAST IN COMBINATION WITH METFORMIN, CANNBIDIOL, SERTRALINE OR QUERCETIN” (priority 2019, published 2022)

How the values were obtained:
Type in all cases: in vivo
Fmr1 KO2 mice [1] = assay: Behavioral testing (all behavioural tests together)
Source text: (§1) Fmr1 knockout 2 (Fmr1 KO2) mice were generated by deletion of the promoter and first exon of Fmr1. The Fmr1 KO2 it is both, protein and mRNA null. In this study we used Fmr1 KO2 and wild-type (WT) littermates generated on a C57BL/6J background and repeatedly backcrossed onto a C57BL/6J background for more than eight generations.
(§2) There were five treatment groups per compound in the study with 10 male mice used per treatment group (all at 8 weeks of age): Group 1: wild-type littermate mice treated with vehicle (WT-Veh), Group 2: Fmr1 KO2 mice treated with vehicle (KO-Veh), Group 3: Fmr1 KO2 mice treated with ibudilast (KO-ibudilast); Group 4: Fmr1 KO2 mice treated with compound A (KO-[compound A]); Group 5: Fmr1 KO2 mice treated with ibudilast and compound A (KO-ibu/[compound A].
For experiments, all mice were tested once in the same apparatus. Prior to testing, mice were placed in the apparatus for some minutes before the experiment. The apparatus was cleaned with moist and dry tissues before testing each mouse. The aim was to create a low but constant background mouse odor for all experimental subjects. Testers were blind to the genotype and treatment during all testing and data analysis. We assessed weight loss, fur loss, walking, eyes open, eye discharges and general behavior.
(§3) Data were analyzed by one-way ANOVA with a Dunnett's multiple comparison post hoc test in which WT Vehicle group was used as reference and compared with all the other groups

Fmr1 KO2 mice [2] = assay: Nesting
Source text: (§4) The Fmr1 KO2 it is both, protein and mRNA null. In this study we used Fmr1 KO2 and wild-type (WT) littermates generated on a C57BL/6J background and repeatedly backcrossed onto a C57BL/6J background for more than eight generations. There were five treatment groups per compound in the study with 10 male mice used per treatment group (all at 8 weeks of age): Group 1: wild-type littermate mice treated with vehicle (WT-Veh), Group 2: Fmr1 KO2 mice treated with vehicle (KO-Veh), Group 3: Fmr1 KO2 mice treated with ibudilast (KO-ibudilast); Group 4: Fmr1 KO2 mice treated with compound A (KO-[compound A]); Group 5: Fmr1 KO2 mice treated with ibudilast and compound A (KO-ibu/[compound A]. For experiments, all mice were tested once in the same apparatus. Prior to testing, mice were placed in the apparatus for some minutes before the experiment. The apparatus was cleaned with moist and dry tissues before testing each mouse. The aim was to create a low but constant background mouse odor for all experimental subjects. Testers were blind to the genotype and treatment during all testing and data analysis. We assessed weight loss, fur loss, walking, eyes open, eye discharges and general behavior. […] Mice were placed individually into the nesting cages 1 hr. before the dark phase, and the results were assessed the next morning. Nest building was scored on a 5 point scale. […]

Fmr1 KO2 mice [3] = assay: Open field (hyperactivity)
Source text: as §1, §2
(§5) For experiments, all mice were tested once in the same apparatus. […] We assessed weight loss, fur loss, walking, eyes open, eye discharges and general behavior.
The open-field apparatus was used to test hyperactivity. […] The number of squares entered by the whole body (locomotor activity) was counted. The movement of the mouse around the field was recorded with a video tracking device for 3 min (version NT4.0, Viewpoint).
as §3

Fmr1 KO2 mice [4] = assay: Social interaction (three-chambered sociability task)
Source text: as §1, §2, §5
In the three-chambered sociability task, a subject mouse was evaluated for its exploration of a novel social stimulus (novel mouse). […] The time spent exploring the novel mice was scored as exploration ratio.
as §3

Fmr1 KO2 mice [5] = assay: Fear conditioning
Source text: as §4, with “The dependent measure used in contextual fear conditioning” for “Mice were placed individually into the nesting cages 1 hr. before the dark phase, and the results were assessed the next morning. Nest building”, “was” for “was scored on”, “freezing response following a pairing of an unconditioned stimulus (foot shock), with a conditioned stimulus, a particular context.” for “5 point scale.”

Compound: C=C(C)[C@@H]1CCC(C)=C[C@H]1c1c(O)cc(CCCCC)cc1O [cannabidiol]
- effect of the amount given alone in the behavioural tests (Fmr1 KO2 mice [1]; cannabidiol alone 5 mg/kg, FIG. 5): ineffective

Compound: CC(C)C(=O)c1c(C(C)C)nn2ccccc12 [ibudilast, 2-methyl-1-(2-propan-2-ylpyrazolo[1,5-a]pyridin-3-yl)propan-1-one]
- effect of the amount given alone in the behavioural tests (Fmr1 KO2 mice [1]; ibudilast alone 3 mg/kg): ineffective
- nesting rescue (Fmr1 KO2 mice [2]; ibudilast 3 mg/kg, FIG. 1): inactive
- nesting rescue (Fmr1 KO2 mice [2]; ibudilast 12 mg/kg, FIG. 2): fully rescued
- open field (hyperactivity) rescue (Fmr1 KO2 mice [3]; ibudilast 3 mg/kg, FIG. 1): inactive
- open field (hyperactivity) rescue (Fmr1 KO2 mice [3]; ibudilast 12 mg/kg, FIG. 2): fully rescued
- sociability rescue (Fmr1 KO2 mice [4]; ibudilast 3 mg/kg, FIG. 1): inactive
- sociability rescue (Fmr1 KO2 mice [4]; ibudilast 12 mg/kg, FIG. 2): fully rescued
- fear conditioning rescue (Fmr1 KO2 mice [5]; ibudilast 3 mg/kg, FIG. 1): partially rescued
- fear conditioning rescue (Fmr1 KO2 mice [5]; ibudilast 12 mg/kg, FIG. 2): fully rescued

Compound: CN(C)C(=N)N=C(N)N [metformin]
- effect of the amount given alone in the behavioural tests (Fmr1 KO2 mice [1]; metformin alone 25 mg/kg, FIG. 4): ineffective

Compound: O=c1c(O)c(-c2ccc(O)c(O)c2)oc2cc(O)cc(O)c12 [quercetin]
- effect of the amount given alone in the behavioural tests (Fmr1 KO2 mice [1]; quercetin alone 5 mg/kg, FIG. 6): ineffective

Compound: CN[C@H]1CC[C@@H](c2ccc(Cl)c(Cl)c2)c2ccccc21 [sertraline]
- effect of the amount given alone in the behavioural tests (Fmr1 KO2 mice [1]; sertraline alone 1 mg/kg, FIG. 3): ineffective
